The record followed here is PMC11522928 (JACS Au, 2024).

Data set [1] relates to chick embryos given CoCl2. Description: CoCl2 ischemia / hypoxia study, embryo survival. The format is in vivo, Gallus gallus domesticus. The following applies: CoCl2 hexahydrate 1.2 mg, 0.54 M.
In data set [2] the test system is chick embryos. Put plainly: Embryo survival after dosing on the CAM.
Data set [3] concerns chick chorioallantoic membrane (CAM) vasculature. Put plainly: Chick chorioallantoic membrane. The format is in vivo, Gallus gallus domesticus. The following applies: 0.75 mg/kg (18.87 µM; antibody 1 mg/mL), n = 2-3, 24 h.

On to `O.O.O.O.O.O.[Cl-].[Cl-].[Co+2]` [CoCl2, CoCl2 hexahydrate], for which the “mortality of embryos treated only with CoCl2” value in data set [1] (32× LD50, 12 h, n = 4) turned out to be 100%; in data set [1] (32× LD50, 24 h, n = 8), 100%.

`COC(=O)N[C@@H](Cc1ccccc1)C(=O)N[C@@H](Cc1ccc(NS(=O)(=O)O)cc1)c1csc(-c2cccs2)n1` [Razuprotafib] showed an embryo survival in data set [2] (dosed at 400 μM, n = 2) of 50%. Moreover, the “lethality, embryos dead / embryos tested” value in data set [2] (dosed at 40 mM on the CAM) was 7/8.

B1: Ang-1: human Ang-1 protein (Gibco) (protein, UniProt Q15389 16-498, looked up)
Angiopoietin-1: HIGCSNQRRSPENSGRRYNRIQHGQCAYTFILPEHDGNCRESTTDQYNTNALQRDAPHVEPDFSSQKLQHLEHVMENYTQWLQKLENYIVENMKSEMAQIQQNAVQNHTATMLEIGTSLLSQTAEQTRKLTDVETQVLNQTSRLEIQLLENSLSTYKLEKQLLQQTNEILKIHEKNSLLEHKILEMEGKHKEELDTLKEEKENLQGLVTRQTYIIQELEKQLNRATTNNSVLQKQQLELMDTVHNLVNLCTKEGVLLKGGKREEEKPFRDCADVYQAGFNKSGIYTIYINNMPEPKKVFCNMDVNGGGWTVIQHREDGSLDFQRGWKEYKMGFGNPSGEYWLGNEFIFAITSQRQYMLRIELMDWEGNRAYSQYDRFHIGNEKQNYRLYLKGHTGTAGKQSSLILHGADFSTKDADNDNCMCKCALMLTGGWWFDACGPSNLNGMFYTAGQNHGKLNGIKWHYFKGPSYSLRSTTMMIRPLDF
As to B1, the “whether CAM results recapitulate those of KU04212, in words” value in data set [3] is “None of these agents gave results consistent with KU04212”.
